Here are results for 18 compounds from patent US8937193B2, “Apogossypolone derivatives as anticancer agents” (Sanford-Burnham Medical Research Institute, priority 2009, dated 2015).

For data set [1] the following is noted: administered orally (6a); cited from earlier work.
The next data set deals with BP3 cell line. Description: Annexin V-FITC and propidium iodide apoptosis assay, BP3. The class given is cell-based, human.
The next data set can be described thus: EC50 values of FIG. 3(B). To be noted: test not named.
A further data set deals with PC3 cell line. Description: ATP-LITE cell viability assay, PC3. The class given is cell-based. As to conditions: Homo sapiens, PC-3, 72 h, 3 days. The method, then: (§1) The activity of the compounds against human cancer cell lines (PC3, H460, H1299) were assessed by using the ATP-LITE assay (PerkinElmer). All cells were seeded in either […] or RPMI1640 medium with 5 mM L-glutamine supplemented with 5% fetal bovine serum (Mediatech Inc.), penicillin and streptomycin (Omega). For maintenance, cells were cultured in 5% FBS. Cells plated into 96 well plates at varying initial densities depending on doubling time. H460 and H1299 plated at 2000 cells/well and PC3 at 3000 cells/well. Compounds were diluted to final concentrations with 0.1% DMSO. Prior to dispensing compounds onto cells, fresh 5% media was placed into wells. Administration of compounds occurred 24 hours after seeding into the fresh media. Cell viability was evaluated using ATP-LITE reagent (PerkinElmer) after 72 hours of treatment. Data were normalized to the DMSO control-treated cells using Prism version 5.01 (Graphpad Software).

The subject of another data set is H460 cell line. Description: ATP-LITE cell viability assay, H460. In kind it is cell-based. To be noted: Homo sapiens, NCI-H460, 72 h, 3 days. The method, then: (§2) The activity of the compounds of Formula I against human cancer cell lines (PC3ML, H460, H1299, RS11846) may be assessed by using the ATP-LITE assay (PerkinElmer). All cells are seeded in either F12 or RPMI1640 medium with 5 mM L-glutamine supplemented with 5% fetal bovine serum (Mediatech Inc.), penicillin and streptomycin (Omega). For maintenance, cells are cultured in 5% FBS. Cells plated into 96 well plates at varying initial densities depending on doubling time. H460 and H1299 plated at 2000 cells/well, A549 and PC3 at 3000 cells/well, and […] at 10,000 cells/well. The compounds are diluted to final concentrations with 0.1% DMSO. Prior to dispensing the compounds onto cells, fresh 5% media is placed into the wells. Administration of compounds occurs 24 hours after seeding into the fresh media. Cell viability may be evaluated using ATP-LITE reagent (PerkinElmer) after 72 hours of treatment. Data are normalized to the DMSO control-treated cells using Prism version 5.01 (Graphpad Software).
as §1

The next data set concerns H1299 cell line. Description: ATP-LITE cell viability assay, H1299. In kind it is cell-based. To be noted: Homo sapiens, NCI-H1299, 72 h, 3 days. Here is the method: as §2, §1
The test system of another data set is primary CLL cells. Description: Annexin-V apoptosis assay, primary CLL cells. The class given is cell-based, human.
Data set [2] in a line: In vitro plasma stability. To be noted: for Plasma Stability (T = 40 mins): Table 4; for degraded after 1 hour incubation in rat plasma: rat plasma (preparations).
Description: (§3) To test the pharmacological properties of the compounds of Formula I, the in vitro plasma stability, microsomal stability, and cell membrane permeability may be determined.
The nature of data set [3]: In vitro microsomal stability. As to conditions: Table 4.
Description: as §3
In another data set the test system is PPC-1 xenograft tumors. Description: PPC-1 tumor xenograft study in nude mice.
The subject of another data set is RS4;11 cell line. Description: Annexin V-FITC and propidium iodide apoptosis assay, RS4;11. To be noted: Homo sapiens, RS4-11, 24 h, 1 day. The class given is cell-based.
The target in a further data set is Bcl-XL (Homo sapiens (Human), UniProt Q07817). Description: Fluorescence polarization competitive binding assay (FPA), Bcl-XL. As to conditions: displacement of BH3 peptide. (Fluorescence polarisation rises when a labelled molecule tumbles more slowly, as on binding a larger partner.)

The EC50 is the concentration needed to bring the measured effect to its halfway point. Broadly, the IC50 is the concentration that inhibits the measured activity by half.

Several values for one entry are separate records, joined by “and”; a condition that tells them apart may be missing. Equal values may be shown once. Entries after “also recorded” stand apart in the source; their conditions may differ. Some results are limits rather than exact numbers.

Chain of Bcl-XL (Q07817 1-211): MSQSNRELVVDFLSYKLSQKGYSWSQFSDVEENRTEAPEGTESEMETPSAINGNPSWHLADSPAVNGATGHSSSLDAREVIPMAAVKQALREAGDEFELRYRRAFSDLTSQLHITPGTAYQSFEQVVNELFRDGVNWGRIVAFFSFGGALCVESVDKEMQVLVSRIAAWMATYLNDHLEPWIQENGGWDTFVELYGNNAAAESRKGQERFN
Protocol for BP3 cell line: (§4) The apoptotic activity of the compounds against RS4;11, BP3 and primary CLL cells was assessed by staining with Annexin V-FITC and propidium iodide (PI). Cells were cultured in RPMI 1640 medium (Mediatech Inc., Herndon, Va. 20171) containing 10% fetal bovine serum (Mediatech Inc., Herndon, Va. 20171) and Penicillin/Streptomycin (Mediatech Inc., Herndon, Va. 20171). […] The percentage of viable cells was determined by FITC-Annexin V- and propidium iodide (PI)-labeling, using an Apoptosis Detection kit (BioVision Inc.), and analyzing stained cells by flow cytometry (FACSort; Bectin-Dickinson, Inc.; Mountain View, Calif.). Cells that were annexin-V-negative and PI-negative were considered viable.
Protocol for Bcl-XL: For competitive binding assays, 100 nM GST-BCL-XL ΔTM protein was preincubated with the tested compound at varying concentrations in 47.5 μL PBS (pH=7.4) in 96-well black plates at room temperature for 10 min, then 2.5 μL of 100 nM FITC-labeled Bak BH3 peptide was added to produce a final volume of 50 μL. The wild-type and mutant Bak BH3 peptides were included in each assay plate as positive and negative controls, respectively. After 30 min incubation at room temperature, the polarization values in millipolarization units were measured at excitation/emission wavelengths of 480/535 nm with a multilabel plate reader (PerkinElmer). IC50 was determined by fitting the experimental data to a sigmoidal dose-response nonlinear regression model (SigmaPlot 10.0.1, Systat Software, Inc., San Jose, Calif., USA). Data reported are mean of three independent experiments±standard error (SE). […] Fluorescence polarization was measured after 10 min.
Protocol for PPC-1 xenograft tumors: Female 6-week-old nude mice were purchased from Charles River Laboratories. 5×10^6 PCC-1 cells suspended in 0.2 ml PBS were injected subcutaneously into a flank region of each nude mouse. Tumor bearing mice were size matched (200 mm^3) into treatment and control group, ear tagged, and monitored individually. Tumor volume was measured two to three times weekly by digital calipers (volume=length×width^2/2). All studies use 6 mice per group. […] Control mice received saline. The injections were given three times in first week, twice in second week and once in third week and a total of six injections were administered during the experiment. When all tumors of the control group exceed 2000 mm^3 in volume, the animal experiment was terminated. Tumor growth inhibition ratios (T/C %) were calculated by dividing the average tumor volume in the treatment group by the average tumor volume in the control group.
Protocol for RS4;11 cell line: as §4
Protocol for primary CLL cells: as §4

As for `Cc1cc2c(C(C)C)c(O)c(O)c(C=O)c2c(O)c1-c1c(C)cc2c(C(C)C)c(O)c(O)c(C=O)c2c1O` [(−) 1], the “maximum tolerated dose (MTD)” value in [1] was 50 mg/kg.

On to `CN(C)CC[C@H](CSc1ccccc1)Nc1ccc(S(=O)(=O)NC(=O)c2ccc(N3CCN(Cc4ccccc4-c4ccc(Cl)cc4)CC3)cc2)cc1[N+](=O)[O-]` [ABT-737, reference compound], for which the “cell (cytotoxic) activity against BP3 cell lines” value in the data set with BP3 cell line (result in words) was “no cell activity; also recorded: no cytotoxic activity”.

For `Cc1cc2c(C(=O)Cc3ccccc3)c(O)c(O)cc2c(O)c1-c1c(C)cc2c(C(=O)Cc3ccccc3)c(O)c(O)cc2c1O` [BI79D10], in the data set “EC50 values of FIG. 3(B)”, a half-maximal effect (EC50) was put at 360 nM.

In the case of `CC1=C(C2=C(C)C(=O)c3c(cc(O)c(O)c3CC3CCCC3)C2=O)C(=O)c2cc(O)c(O)c(CC3CCCC3)c2C1=O` [Compound 6c, 5,5′-bis(cyclopentylmethyl)-6,6′,7,7′-tetrahydroxy-3,3′-dimethyl-2,2′-binaphthyl-1,1′,4,4′-tetraone], the concentration giving a half-maximal response (EC50) in the data set on PC3 cell line worked out at 5500 ± 740 nM; in the data set with H460 cell line it was 700 ± 340 nM; in the data set on H1299 cell line it was 2320 ± 510 nM. For the same compound, in the data set with primary CLL cells (comparison of 6c with 6a), the “LD50 primary CLL samples” value stood at 6.5 µM.

Turning to `CC1=C(C2=C(C)C(=O)c3c(cc(O)c(O)c3CCC3CCCCC3)C2=O)C(=O)c2cc(O)c(O)c(CCC3CCCCC3)c2C1=O` [Compound 6d, 5,5′-bis(2-cyclohexylethyl)-6,6′,7,7′-tetrahydroxy-3,3′-dimethyl-2,2′-binaphthyl-1,1′,4,4′-tetraone], the figures for the concentration giving a half-maximal response (EC50) in the data set on PC3 cell line, with H460 cell line and in the data set with H1299 cell line were 2400 ± 240 nM, 2200 ± 760 nM and 1320 ± 300 nM, respectively. Moreover, the “Plasma Stability (T = 40 mins)” value in data set [2] is given as 74%. Besides, the “Microsomal Stability (T = 40 mins)” value in data set [3] was 98%.

As to `CC1=C(C2=C(C)C(=O)c3c(cc(O)c(O)c3CCc3ccc(C)cc3)C2=O)C(=O)c2cc(O)c(O)c(CCc3ccc(C)cc3)c2C1=O` [Compound 6f, 6,6′,7,7′-tetrahydroxy-3,3′-dimethyl-5,5′-bis(4-methylphenethyl)-2,2′-binaphthyl-1,1′,4,4′-tetraone], the “LD50 primary CLL samples” value with primary CLL cells (six CLL samples from six different patients) lay within 1.0 to 16.9 µM. In addition, the “LD50 primary CLL samples” value in the data set with primary CLL cells (two primary CLL samples, one day Annexin-V apoptosis assay) was 10 µM and 15 µM. Besides, in [2], the “degraded after 1 hour incubation in rat plasma” value turned out to be 14% and the “Plasma Stability (T = 40 mins)” value was found to be 86%. Also, in the data set with PPC-1 xenograft tumors (50 mg/kg i.p.), the “average body weight losses during the treatment” value was determined as 6.8% and the signs of toxicity result is given as “no observable signs of toxicity”. For the same compound, the “weight loss in first week” value with PPC-1 xenograft tumors (50 mg/kg i.p. three times in first week) was ~5%.

`CC1=C(C2=C(C)C(=O)c3c(cc(O)c(O)c3CCCc3ccccc3)C2=O)C(=O)c2cc(O)c(O)c(CCCc3ccccc3)c2C1=O` [Compound 6g, 6,6′,7,7′-tetrahydroxy-3,3′-dimethyl-5,5′-bis(3-phenylpropyl)-2,2′-binaphthyl-1,1′,4,4′-tetraone]: the EC50 with PC3 cell line is 1300 ± 180 nM; with H460 cell line, 920 ± 90 nM; in the data set with H1299 cell line, 1530 ± 410 nM; in the data set on RS4;11 cell line it was 3830 ± 700 nM. The “Plasma Stability (T = 40 mins)” value in data set [2] came to 87%. Besides, the “Microsomal Stability (T = 40 mins)” value in data set [3] amounted to 88%.

With `CC1=C(C2=C(C)C(=O)c3c(cc(O)c(O)c3CCC(C)(C)c3ccccc3)C2=O)C(=O)c2cc(O)c(O)c(CCC(C)(C)c3ccccc3)c2C1=O` [Compound 6h, 6,6′,7,7′-tetrahydroxy-3,3′-dimethyl-5,5′-bis(3-methyl-3-phenylbutyl)-2,2′-binaphthyl-1,1′,4,4′-tetraone], the EC50 in the data set with PC3 cell line amounted to 2000 ± 170 nM; in the data set on H460 cell line, 1620 ± 160 nM; with H1299 cell line it was 2160 ± 270 nM.

Turning to `CC1=C(C2=C(C)C(=O)c3c(cc(O)c(O)c3Cc3ccccc3)C2=O)C(=O)c2cc(O)c(O)c(Cc3ccccc3)c2C1=O` [Compound 6i, 5,5′-dibenzyl-6,6′,7,7′-tetrahydroxy-3,3′-dimethyl-2,2′-binaphthyl-1,1′,4,4′-tetraone], the IC50 on Bcl-XL fell in the range of 160 to 630 nM. Moreover, in data set [2], the “degraded after 1 hour incubation in rat plasma” value is 5% and the “Plasma Stability (T = 40 mins)” value was 95%.

In the case of `CC1=C(C2=C(C)C(=O)c3c(cc(O)c(O)c3CCc3ccc(OC(F)(F)F)cc3)C2=O)C(=O)c2cc(O)c(O)c(CCc3ccc(OC(F)(F)F)cc3)c2C1=O` [Compound 6j, 6,6′,7,7′-tetrahydroxy-3,3′-dimethyl-5,5′-bis(4-(trifluoromethoxy)phenethyl)-2,2′-binaphthyl-1,1′,4,4′-tetraone], the EC50 with PC3 cell line was 8990 ± 2490 nM; with H460 cell line it was 1440 ± 200 nM; in the data set on H1299 cell line, 2380 ± 210 nM.

As for `CC1=C(C2=C(C)C(=O)c3c(cc(O)c(O)c3CCCc3ccc(F)cc3)C2=O)C(=O)c2cc(O)c(O)c(CCCc3ccc(F)cc3)c2C1=O` [Compound 6k, 5,5′-bis(3-(4-fluorophenyl)propyl)-6,6′,7,7′-tetrahydroxy-3,3′-dimethyl-2,2′-binaphthyl-1,1′,4,4′-tetraone], the results for the EC50 in the data set with PC3 cell line, in the data set on H460 cell line and with H1299 cell line were 2620 ± 310 nM, 1480 ± 20 nM and 1910 ± 170 nM, respectively.

As for `CC1=C(C2=C(C)C(=O)c3c(cc(O)c(O)c3Cc3ccc(Cl)cc3)C2=O)C(=O)c2cc(O)c(O)c(Cc3ccc(Cl)cc3)c2C1=O` [Compound 6l, 5,5′-bis(4-chlorobenzyl)-6,6′,7,7′-tetrahydroxy-3,3′-dimethyl-2,2′-binaphthyl-1,1′,4,4′-tetraone], the IC50 on Bcl-XL was 160 to 630 nM.

Regarding `CC1=C(C2=C(C)C(=O)c3c(cc(O)c(O)c3Cc3ccc(-c4ccccc4)cc3)C2=O)C(=O)c2cc(O)c(O)c(Cc3ccc(-c4ccccc4)cc3)c2C1=O` [Compound 6m, 5,5′-bis(biphenyl-4-ylmethyl)-6,6′,7,7′-tetrahydroxy-3,3′-dimethyl-2,2′-binaphthyl-1,1′,4,4′-tetraone], the concentration for a half-maximal effect (EC50) with PC3 cell line was found to be 2970 ± 980 nM; with H460 cell line it was 980 ± 150 nM; in the data set on H1299 cell line it was 10300 ± 3840 nM.

Consider `CC1=C(C2=C(C)C(=O)c3c(cc(O)c(O)c3C(=O)Cc3ccccc3)C2=O)C(=O)c2cc(O)c(O)c(C(=O)Cc3ccccc3)c2C1=O` [Compound 7, 6,6′,7,7′-Tetrahydroxy-3,3′-dimethyl-5,5′-bis(2-phenylacetyl)-2,2′-binaphthyl-1,1′,4,4′-tetraone], for which the EC50 with PC3 cell line was 5440 ± 240 nM; with H460 cell line, 7380 ± 1070 nM; with H1299 cell line, > 30000 nM; with BP3 cell line (Homo sapiens, BP3, 24 h, Annexin V-FITC and propidium iodide assay, 1 day), 9580 ± 4160 nM. At Bcl-XL, this compound showed an IC50 of 160 to 630 nM.

As to `CC1=C(C2=C(C)C(=O)c3c(cc(O)c(O)c3C(=O)NCC(C)c3ccccc3)C2=O)C(=O)c2cc(O)c(O)c(C(=O)NCC(C)c3ccccc3)c2C1=O` (stereo not shown) [Compound 8a, 6,6′,7,7′-Tetrahydroxy-3,3′-dimethyl-1,1′,4,4′-tetraoxo-N^5,N^5′-bis(2-phenylpropyl)-1,1′,4,4′-tetrahydro-2,2′-binaphthyl-5,5′-dicarboxamide], in the data set on H1299 cell line, the EC50 is > 30000 nM. At Bcl-XL, this compound returned an IC50 of 160 to 630 nM. For the same compound, in data set [2], the “Plasma Stability (T = 40 mins)” value is listed as 91%. Besides, the “Microsomal Stability (T = 40 mins)” value in data set [3] worked out at 71%.

With `CC1=C(C2=C(C)C(=O)c3c(cc(O)c(O)c3C(=O)NCc3cccc(C)c3)C2=O)C(=O)c2cc(O)c(O)c(C(=O)NCc3cccc(C)c3)c2C1=O` [Compound 8b, 6,6′,7,7′-tetrahydroxy-3,3′-dimethyl-N^5,N^5′-bis(3-methylbenzyl)-1,1′,4,4′-tetraoxo-1,1′,4,4′-tetrahydro-2,2′-binaphthyl-5,5′-dicarboxamide], the EC50 in the data set on PC3 cell line was 5440 ± 340 nM; in the data set on H460 cell line, 6160 ± 1480 nM; in the data set with H1299 cell line, > 30000 nM.

On to `CCc1ccc(CCNC(=O)c2c(O)c(O)cc3c2C(=O)C(C)=C(C2=C(C)C(=O)c4c(cc(O)c(O)c4C(=O)NCCc4ccc(CC)cc4)C2=O)C3=O)cc1` [Compound 8c, N^5,N^5′-Bis(4-ethylphenethyl)-6,6′,7,7′-tetrahydroxy-3,3′-dimethyl-1,1′,4,4′-tetraoxo-1,1′,4,4′-tetrahydro-2,2′-binaphthyl-5,5′-dicarboxamide], for which the half-inhibitory concentration (IC50) at Bcl-XL lay within 160 to 630 nM.

`Cc1cc2c(C(C)C)c(O)c(O)c(C=O)c2c(O)c1-c1c(C)cc2c(C(C)C)c(O)c(O)c(C=O)c2c1O` [Gossypol, 1,1′,6,6′,7,7′-Hexahydroxy-5,5′-diisopropyl-3,3′-dimethyl-2,2′-binaphthyl-8,8′-dicarboxaldehyde]: the “mortality in first week” value in the data set with PPC-1 xenograft tumors (25 mg/kg, i.p.) is listed as “died”.
